Key:
[1] = test system: chick chorioallantoic membrane; test: Chick chorioallantoic membrane (CAM) angiogenesis assay; format: in vivo; settings: 48 hr
Experimental: The chick chorioallantoic or yolk sac membrane (CAM) assays for angiogenesis are important in vivo models of microvessel formation. […] Briefly, fertilized chick embryos with the yolk intact were removed from their shells on day 3 of development and incubated at 37° C.

MMP-2 [2] = test: Gelatin zymography of HUVEC conditioned medium, bFGF-stimulated proMMP-2 and its activated form; format: cell-based; settings: Homo sapiens, bFGF 10 ng/mL for final 24 hr, read-out: inhibition of bFGF-stimulated synthesis of proMMP-2 and its activated form
Experimental: (§1) Human umbilical vein endothelial cells (H 930) were generously supplied by Dr. Tom Maciag, American Red Cross (Gaithersburg, Md., USA) and were used between passages 9 and 14 to avoid senescence. HUVECs were grown on fibronectin-coated tissue culture plastic (200 μg/150 mm dish) in complete medium (Medium 199 (M-199) containing 5 U/mL preservative-free heparin, 25.5 μg/mL ECGS, 10% fetal bovine serum and 100 U/mL penicillin, 100 μg/mL streptomycin, and 0.25 μg/mL fungizone).
Gelatin zymography was carried out as described in Brown, et al., Cancer Research 50:6184-6191 (1990). HUVECs were seeded at 1.2×10^5 /cm^2 in 25 cm^2 fibronectin-coated tissue culture flasks in complete medium containing increasing concentrations of compound 1 (0.1-10 μM) or DMSO vehicle control. After 18 hr of culture, the complete medium was removed and the cells were washed once with serum-free M-199 supplemented with 5 μg/mL bovine insulin, 5 μg/mL human transferrin and 5 ng/mL sodium selenite (ITS). A further 24 hr incubation was carried out with 3 mL of fresh ITS-containing M-199 and varying concentrations of compound 1 (0.1-10 μM) or DMSO vehicle control (0.1%). This conditioned medium was harvested and spun free of cells.
See, Rifkin, et al., J. Cell Biol. 109:1-6 (1989). […]

HUVECs = test: bFGF-stimulated HUVEC growth in low serum (1% FCS), crystal violet; format: cell-based; settings: Homo sapiens, bFGF 10 ng/ml
Experimental: as §1
Growth inhibition of HUVECs by compound 1 was measured by crystal violet nuclear stain. Briefly, 50,000 cells were seeded per well in 24 well plates using complete medium in the presence of increasing concentrations of compound 1 (0.01-10 μM) or DMS0 vehicle control (0.1%) and cultures were incubated for 24-120 hours. […] Optical density of the eluted samples was determined at 540 nm and the results were expressed as percent of DMSO control cell growth. Data are expressed as percentage of control value and are presented as mean±SEM (n=3).
To evaluate the effect of bFGF on HUVECs growth, cells were plated in low serum medium (1% FCS) in the presence of 10 ng/ml of bFGF and increasing concentrations of compound 1. At the indicated time, cells were fixed, stained, and quantitated as described above.

MMP-2 [3] = test: Northern blot analysis of MMP-2 expression in HUVECs; format: cell-based, human; settings: 24 hr; for inhibition at 10 µM: Homo sapiens, HUVEC
Experimental: as §1
HUVECs were grown to confluence as described. Fresh complete medium with test compounds was added to confluent cells for an additional 24 hr incubation. bFGF (10 ng/mL), and/or compound 1 (10 μM) or DMSO control (0.1%) were added as indicated below. Total RNA was isolated by the guanidine isothiocyanate/CsCl method. Aliquots of RNA (7.5 μg) were separated on 1% agarose/formaldehyde gels, passively transferred to GeneScreen Plus membrane in 20X SSC, then cross-linked with ultraviolet light. Blots were prewashed for 1 hr at 42° C. in 1M NaCl, 10 mM Tris, 1 mM EDTA, 0.1% SDS and then hybridized overnight at 42° C. with a formamide-containing buffer (hybridization buffer final: 50% formamide, 4X SSC, 10 mM Tris pH 7.5, IX Denhardt solution, 0.2% SDS, 125 μg/ml salmon sperm DNA) with a random-primed 300 bp insert for MMP-2 (gift of Dr. William Stetler-Stevenson, Laboratory of Pathology, NCI). Blots were washed under stringent conditions then exposed to film. After removal of MMP-2 probe, blots were rehybridized with β-actin probe for quantitation of the RNA load. Results were quantitated by densitometric evaluation of the autoradiographs.
Lane 1 corresponds to the mRNA from HUVECs treated with DMSO (control). Lanes 2-4 show the mRNA isolated from HUVECs treated with compound 1 (10 μM) alone, compound 1 (10 μM) and bFGF (10 ng/mL), bFGF (10 ng/mL) alone, respectively.

[4] = bFGF 10 ng/mL + Compound 1 10 μM

NC(=O)c1nnn(Cc2cc(Cl)c(C(=O)c3ccc(Cl)cc3)c(Cl)c2)c1N [Compound 1, 5-amino-1-(4-(4-chlorobenzoyl)-3,5-dichlorobenzyl)1,2,3-triazole-4-carboxamide]
% Inhibition (capillary formation in vivo) ([1]; 10 μM): 55% | Eggs with avascular zones/total ([1]; 10 μM): 19/34 | embryos with large avascular zone ([1]; 10 μM): 55% | % Inhibition (capillary formation in vivo) ([1]; 20 μM): 67% | Eggs with avascular zones/total ([1]; 20 μM): 20/30 | embryos with large avascular zone ([1]; 20 μM): 67% | angiogenesis inhibitory effect (in words) ([1]; 10 or 20 μM): dose-dependent | inhibition at 10 µM (MMP-2 [2]): 90% | inhibition at 10 µM (HUVECs; 72 h, 3 days from seeding, P2<0.01): 25% | inhibition at 10 µM (HUVECs; 120 h, 5 days from seeding, P2<0.005): 45% | Corrected values (MMP-2 mRNA corrected for loading) (MMP-2 [3]; Control + Compound 1, 10 μM): 0.30 | MMP-2 (densitometer) (MMP-2 [3]; Control + Compound 1, 10 μM): 38 Densitometer units | inhibition at 10 µM (MMP-2 [3]; no bFGF, vs control, read-out: % Inhibition of native MMP-2 expression): 86% | inhibition at 10 µM (MMP-2 [3]; bFGF 10 ng/mL, vs bFGF, read-out: % Inhibition of MMP-2 expression in presence of bFGF): 62% | Corrected values (MMP-2 mRNA corrected for loading) (MMP-2 [3]; [4]): 0.14 | MMP-2 (densitometer) (MMP-2 [3]; [4]): 31 Densitometer units

Source: patent US5744492A, “Method for inhibiting angiogenesis” (United States of America, priority 1994, dated 1998)
